No end group written: not given here. *: point of attachment. Biotin = O=C1N[C@H]2[C@H](CS[C@H]2CCCCC(=O)*)N1
Experiments:
[1] = molecular target: T1, pVHL-elongin B-elongin C (VBC) complex (Homo sapiens, UniProt P40337+Q15369+Q15370); test: Biolayer interferometry kinetic analysis of VBC complex binding to biotinylated HIF-2α peptides; settings: for ka (association rate): purified VBC; for binding to VBC compared to WT (in words): HIF-2αOH peptides (523–541)
T1 construct: a construct encoding N-terminal GST-tagged pVHL19 (54–213); GST (N, cleaved yes); made in house; host or cells: BL21(DE3) E. coli
Method: Absorbance was read at 450 nm. […] The data were analyzed based on a 1:1 binding model using the BLItz Pro software with the fitted curves shown as gray lines. […] Values represent mean of three experiments conducted with independently purified protein ± SEM. * denotes uncharacterized band
Multiple concentrations of purified VBC complex were diluted in kinetics buffer and allowed to associate with immobilized peptide over 120 s. Subsequently, the SA-BLI probe was immersed into kinetics buffer for 120 s to allow for dissociation. The data were analyzed, step corrected, reference corrected, and fit to a global 1:1 binding model. Kd, ka, and kd were calculated using the BLItz Pro software.

HIS6-PHD2 (181–426) = test: In vitro hydroxylation assay (HIS6-PHD2 treatment, then IVTT pVHL pull-down); assay type: biochemical; settings: unmodified biotinylated peptides, 15 μg/mL HIS6-PHD2 (181–426), 1 h room temperature, then IVTT HA-VHL30 under stringent buffer
Method: Considering that prolyl hydroxylation is indispensable for HIF-2α binding to pVHL, we next examined the notion that the A530V mutation negatively influences hydroxylation of HIF-2α via PHD2, which would attenuate HIF-2α A530V binding affinity for pVHL. We conducted an in vitro hydroxylation assay utilizing unmodified peptides (amino acids 523–542) incubated with purified HIS6-PHD2 (catalytic core, amino acids 181–426).
Fig. 5 A subset of class 1 mutations specifically disrupts PHD2-mediated hydroxylation. a, b Biotinylated HIF-2α peptides (residues 523–542) were immobilized on streptavidin- agarose beads and incubated with HIS6-PHD2 for 1 h at room temperature prior to incubation with in vitro transcribed and translated (IVTT) pVHL. Streptavidin beads were pulled down (PD) and levels of HA-tagged pVHL were visualized via immmunoblotting (IB). c HEK293a cells were co-transfected with FLAG-VHL and HA-HIF-2α constructs. FLAG was immunoprecipitated (IP) and levels of HA-tagged HIF-2α were visualized via immunoblotting (IB). * denotes uncharacterized band
The in vitro pVHL-HIF-2α hydroxylation assay was performed according to a previously published protocol. 5 μg of biotinylated HIF-2α peptide was immobilized on streptavidin-agarose beads. Subsequently, peptides were incubated with 15 μg/mL HIS6-PHD2 (181–426) in 500 μL of 40 mM HEPES pH 7.4, 80 mM KCl, 5 mM a-ketoglutarate, 2 mM ascorbic acid, 100 μM FeCl2 tetrahydrate solution at room temperature for 1 h. FeCl2 was stored under anoxic conditions to prevent oxidation. Following hydroxylation, beads were washed 5x with EBC buffer and peptides were incubated with IVTT HA-VHL30 under the stringent buffer conditions described above.

[2] = BLItz biolayer interferometry, peptide (523–541) immobilized, global 1:1 model, mean of three experiments ± SEM

T1 sequence (P40337 54-213): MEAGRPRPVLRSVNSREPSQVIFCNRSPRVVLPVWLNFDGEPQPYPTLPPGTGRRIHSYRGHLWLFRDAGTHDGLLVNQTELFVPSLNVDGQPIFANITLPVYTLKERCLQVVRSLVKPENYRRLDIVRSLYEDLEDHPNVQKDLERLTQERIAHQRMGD
T1 sequence (Q15370 whole entry partner): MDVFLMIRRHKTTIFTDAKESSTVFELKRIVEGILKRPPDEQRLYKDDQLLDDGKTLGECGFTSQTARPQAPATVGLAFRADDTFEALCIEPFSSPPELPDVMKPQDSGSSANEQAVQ
T1 sequence (Q15369 17-112 partner limits assumed): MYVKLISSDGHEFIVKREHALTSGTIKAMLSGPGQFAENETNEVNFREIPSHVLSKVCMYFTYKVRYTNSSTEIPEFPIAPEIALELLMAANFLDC

Row | Molecule | ka (association rate) [1, 2] | binding to VBC compared to WT (in words) ([1]; BLI) | ka (association rate) ([1]; BLI, 1:1 model) | binding to pVHL following HIS6-PHD2 treatment (immunoblot, in words) (HIS6-PHD2 (181–426))
1 | CC[C@H](C)[C@H](NC(=O)[C@H](Cc1ccc(O)cc1)NC(=O)[C@@H]1C[C@@H](O)CN1C(=O)[C@@H](NC(=O)[C@H](CC(C)C)NC(=O)[C@@H](NC(=O)[C@H](CCC(=O)O)NC(=O)[C@H](CC(C)C)NC(=O)[C@H](CC(=O)O)NC(=O)[C@H](CC(C)C)NC(=O)[C@H](CCC(=O)O)NC(=O)CCCC[C@@H]1SC[C@@H]2NC(=O)N[C@@H]21)[C@@H](C)O)[C@@H](C)O)C(=O)N1CCC[C@H]1C(=O)N[C@@H](CCSC)C(=O)N[C@@H](CC(=O)O)C(=O)NCC(=O)N[C@@H](CCC(=O)O)C(=O)N[C@@H](CC(=O)O)C(=O)N[C@@H](Cc1ccccc1)C(=O)N[C@@H](CCC(N)=O)C(N)=O [HIF-2αOH (A530T)] | 3.4 ± 0.3 x10^4 Ms^−1 | – | – | –
2 | CC[C@H](C)[C@H](NC(=O)[C@H](Cc1ccc(O)cc1)NC(=O)[C@@H]1C[C@@H](O)CN1C(=O)[C@@H](NC(=O)[C@H](CC(C)C)NC(=O)[C@@H](NC(=O)[C@H](CCC(=O)O)NC(=O)[C@H](CC(C)C)NC(=O)[C@H](CC(=O)O)NC(=O)[C@H](CC(C)C)NC(=O)[C@H](CCC(=O)O)NC(=O)CCCC[C@@H]1SC[C@@H]2NC(=O)N[C@@H]21)[C@@H](C)O)C(C)C)C(=O)N1CCC[C@H]1C(=O)N[C@@H](CCSC)C(=O)N[C@@H](CC(=O)O)C(=O)NCC(=O)N[C@@H](CCC(=O)O)C(=O)N[C@@H](CC(=O)O)C(=O)N[C@@H](Cc1ccccc1)C(=O)N[C@@H](CCC(N)=O)C(N)=O [HIF-2αOH (A530V)] | 2.7 ± 0.2 x10^4 Ms^−1 | – | – | –
3 | CC[C@H](C)[C@H](NC(=O)[C@H](Cc1ccc(O)cc1)NC(=O)[C@@H]1C[C@@H](O)CN1C(=O)[C@H](C)NC(=O)[C@H](CC(C)C)NC(=O)[C@@H](NC(=O)[C@H](CCC(=O)O)NC(=O)[C@H](CC(C)C)NC(=O)[C@H](CC(=O)O)NC(=O)[C@H](CC(C)C)NC(=O)[C@H](CCC(=O)O)NC(=O)CCCC[C@@H]1SC[C@@H]2NC(=O)N[C@@H]21)[C@@H](C)O)C(=O)N1CCC[C@H]1C(=O)N[C@@H](CCSC)C(=O)N[C@@H](CC(=O)O)C(=O)NCC(=O)N[C@@H](CCC(=O)O)C(=O)N[C@@H](CCC(=O)O)C(=O)N[C@@H](Cc1ccccc1)C(=O)N[C@@H](CCC(N)=O)C(N)=O [HIF-2αOH (D539E)] | 3.6 ± 0.05 x10^4 Ms^−1 | little defect | – | –
4 | Bio-HIF-2α(A530T): unmodified HIF-2α peptide (523–542) with A530T mutation (Biotin-ELDLETLTPYIPMDGEDFQL-NH2; SMILES CC[C@H](C)[C@H](NC(=O)[C@H](Cc1ccc(O)cc1)NC(=O)[C@@H]1CCCN1C(=O)[C@@H](NC(=O)[C@H](CC(C)C)NC(=O)[C@@H](NC(=O)[C@H](CCC(=O)O)NC(=O)[C@H](CC(C)C)NC(=O)[C@H](CC(=O)O)NC(=O)[C@H](CC(C)C)NC(=O)[C@H](CCC(=O)O)NC(=O)CCCC[C@@H]1SC[C@@H]2NC(=O)N[C@@H]21)[C@@H](C)O)[C@@H](C)O)C(=O)N1CCC[C@H]1C(=O)N[C@@H](CCSC)C(=O)N[C@@H](CC(=O)O)C(=O)NCC(=O)N[C@@H](CCC(=O)O)C(=O)N[C@@H](CC(=O)O)C(=O)N[C@@H](Cc1ccccc1)C(=O)N[C@@H](CCC(N)=O)C(=O)N[C@@H](CC(C)C)C(N)=O) | – | – | – | only minimally able to bind pVHL
5 | Bio-HIF-2α(A530V): unmodified HIF-2α peptide (523–542) with A530V mutation (Biotin-ELDLETLVPYIPMDGEDFQL; UniProt Q99814 523-542, looked up, fragment A530V) | – | – | – | only minimally able to bind pVHL
6 | HIF-2α (wild-type): biotinylated non-hydroxylated wild-type HIF-2α peptide, residues 523–541 | – | – | – | failed to bind pVHL
7 | HIF-2α L542P peptide: unmodified HIF-2α peptide (523–542) with class 1 mutation L542P (Biotin-ELDLETLAPYIPMDGEDFQP-NH2; SMILES CC[C@H](C)[C@H](NC(=O)[C@H](Cc1ccc(O)cc1)NC(=O)[C@@H]1CCCN1C(=O)[C@H](C)NC(=O)[C@H](CC(C)C)NC(=O)[C@@H](NC(=O)[C@H](CCC(=O)O)NC(=O)[C@H](CC(C)C)NC(=O)[C@H](CC(=O)O)NC(=O)[C@H](CC(C)C)NC(=O)[C@H](CCC(=O)O)NC(=O)CCCC[C@@H]1SC[C@@H]2NC(=O)N[C@@H]21)[C@@H](C)O)C(=O)N1CCC[C@H]1C(=O)N[C@@H](CCSC)C(=O)N[C@@H](CC(=O)O)C(=O)NCC(=O)N[C@@H](CCC(=O)O)C(=O)N[C@@H](CC(=O)O)C(=O)N[C@@H](Cc1ccccc1)C(=O)N[C@@H](CCC(N)=O)C(=O)N1CCC[C@H]1C(N)=O) | – | – | – | failed to bind pVHL

Further lines, with some results ahead:

Row | ka (association rate) [1, 2] | binding to VBC compared to WT (in words) ([1]; BLI) | ka (association rate) ([1]; BLI, 1:1 model) | Molecule | binding to pVHL following HIS6-PHD2 treatment (immunoblot, in words) (HIS6-PHD2 (181–426))
8 | 3.1 ± 0.3 x10^4 Ms^−1 | – | 31000 M/s | CC[C@H](C)[C@H](NC(=O)[C@H](Cc1ccc(O)cc1)NC(=O)[C@@H]1C[C@@H](O)CN1C(=O)[C@H](C)NC(=O)[C@H](CC(C)C)NC(=O)[C@@H](NC(=O)[C@H](CCC(=O)O)NC(=O)[C@H](CC(C)C)NC(=O)[C@H](CC(=O)O)NC(=O)[C@H](CC(C)C)NC(=O)[C@H](CCC(=O)O)NC(=O)CCCC[C@@H]1SC[C@@H]2NC(=O)N[C@@H]21)[C@@H](C)O)C(=O)N1CCC[C@H]1C(=O)N[C@@H](CCSC)C(=O)N[C@@H](CC(=O)O)C(=O)NCC(=O)N[C@@H](CCC(=O)O)C(=O)N[C@@H](CC(=O)O)C(=O)N[C@@H](CC(C)C)C(=O)N[C@@H](CCC(N)=O)C(N)=O [HIF-2αOH (F540L)] | –
9 | 3.0 ± 0.2 x10^4 Ms^−1 | – | 30000 M/s | CC[C@H](C)[C@H](NC(=O)[C@H](Cc1ccc(O)cc1)NC(=O)[C@@H]1C[C@@H](O)CN1C(=O)[C@H](C)NC(=O)[C@H](CC(C)C)NC(=O)[C@@H](NC(=O)[C@H](CCC(=O)O)NC(=O)[C@H](CC(C)C)NC(=O)[C@H](CC(=O)O)NC(=O)[C@H](CC(C)C)NC(=O)[C@H](CCC(=O)O)NC(=O)CCCC[C@@H]1SC[C@@H]2NC(=O)N[C@@H]21)[C@@H](C)O)C(=O)N1CCC[C@H]1C(=O)N[C@@H](CCSC)C(=O)N[C@@H](CC(=O)O)C(=O)N[C@@H](CCCNC(=N)N)C(=O)N[C@@H](CCC(=O)O)C(=O)N[C@@H](CC(=O)O)C(=O)N[C@@H](Cc1ccccc1)C(=O)N[C@@H](CCC(N)=O)C(N)=O [HIF-2αOH (G537R)] | –
10 | 3.1 ± 0.2 x10^4 Ms^−1 | little defect | – | CC[C@H](C)[C@H](NC(=O)[C@@H]1CCCN1C(=O)[C@@H](NC(=O)[C@H](Cc1ccc(O)cc1)NC(=O)[C@@H]1C[C@@H](O)CN1C(=O)[C@H](C)NC(=O)[C@H](CC(C)C)NC(=O)[C@@H](NC(=O)[C@H](CCC(=O)O)NC(=O)[C@H](CC(C)C)NC(=O)[C@H](CC(=O)O)NC(=O)[C@H](CC(C)C)NC(=O)[C@H](CCC(=O)O)NC(=O)CCCC[C@@H]1SC[C@@H]2NC(=O)N[C@@H]21)[C@@H](C)O)[C@@H](C)CC)C(=O)N[C@@H](CC(=O)O)C(=O)NCC(=O)N[C@@H](CCC(=O)O)C(=O)N[C@@H](CC(=O)O)C(=O)N[C@@H](Cc1ccccc1)C(=O)N[C@@H](CCC(N)=O)C(N)=O [HIF-2αOH (M535I)] | –
11 | 4.9 ± 0.2 x10^4 Ms^−1 | – | – | CC[C@H](C)[C@H](NC(=O)[C@H](CS)NC(=O)[C@@H]1C[C@@H](O)CN1C(=O)[C@H](C)NC(=O)[C@H](CC(C)C)NC(=O)[C@@H](NC(=O)[C@H](CCC(=O)O)NC(=O)[C@H](CC(C)C)NC(=O)[C@H](CC(=O)O)NC(=O)[C@H](CC(C)C)NC(=O)[C@H](CCC(=O)O)NC(=O)CCCC[C@@H]1SC[C@@H]2NC(=O)N[C@@H]21)[C@@H](C)O)C(=O)N1CCC[C@H]1C(=O)N[C@@H](CCSC)C(=O)N[C@@H](CC(=O)O)C(=O)NCC(=O)N[C@@H](CCC(=O)O)C(=O)N[C@@H](CC(=O)O)C(=O)N[C@@H](Cc1ccccc1)C(=O)N[C@@H](CCC(N)=O)C(N)=O [HIF-2αOH (Y532C)] | –
12 | 4.1 ± 0.4 x10^4 Ms^−1 | – | 41000 M/s | CC[C@H](C)[C@H](NC(=O)[C@H](Cc1ccc(O)cc1)NC(=O)[C@@H]1C[C@@H](O)CN1C(=O)[C@H](C)NC(=O)[C@H](CC(C)C)NC(=O)[C@@H](NC(=O)[C@H](CCC(=O)O)NC(=O)[C@H](CC(C)C)NC(=O)[C@H](CC(=O)O)NC(=O)[C@H](CC(C)C)NC(=O)[C@@H](N)CCC(=O)O)[C@@H](C)O)C(=O)N1CCC[C@H]1C(=O)N[C@@H](CCSC)C(=O)N[C@@H](CC(=O)O)C(=O)NCC(=O)N[C@@H](CCC(=O)O)C(=O)N[C@@H](CC(=O)O)C(=O)N[C@@H](Cc1ccccc1)C(=O)N[C@@H](CCC(N)=O)C(N)=O [HIF-2αOH (wild-type)] | –
